These are literature values, as cited in patent publication US20070036839A1, “Phosphorylated glucomannane polysaccharides containing 1-6 and 1-2 linkages increase weight gain in poultry” (priority 2005, published 2007).

The subject of the data set is macrophages. The settings on record: single low dose by intramuscular injection; cited from earlier work.

Take Acemannan [ACM 1]: the activation of macrophages result is listed as “systemic immuno-modulated activation of macrophages”.
